{"source": "patent EP2769722A1", "about": "(Ruprecht-Karls-Universität Heidelberg, priority 2013, dated 2014)", "biological_target": "T1, CA (Human immunodeficiency virus type 1 group M subtype B, UniProt P12493)", "T1 construct": "a fusion protein of CA with glutathione-S-transferase (CA-GST)", "assay": "AlphaScreen: inhibition of CAI-biotin peptide binding to CA-GST", "parameters": "species or system HIV-1", "conditions": "inhibition of CAI binding to CA (CA-GST fusion); compounds screened at 0.5-100 µM; read-out: α screen IC50", "description": "The AlphaScreen experiments are performed using Perkin Elmer Enspire plate reader in white 96-well ProxiPlates and PBS supplemented with 0.05% Tween20, 2mM DTT, 2% DMSO. First, Streptavidin-coated Donor beads are used to capture the CAI-biotin peptide. In the other solution, a fusion protein of CA with glutathione-S-transferase (CA-GST) is mixed with GSH Acceptor beads. Both mixtures were incubated and then mixed together. To test the ability of prepared organic compounds to inhibit the CAI binding to CA, they are screened at concentrations between 0.5-100 µM and IC50 values are calculated from the influenced signals.\nUpon illumination by laser at 680 nm, Donor beads containing the photosensitizer phthalocyanine convert ambient oxygen to an excited form of singlet oxygen ^1O2. Singlet oxygen can within its half-life of ∼ 4µs diffuse approximately 200 nm in solution. If an Acceptor bead is within that proximity, which is mostly upon CA:CAI interaction, energy is transferred from the singlet oxygen to thioxene derivates within the Acceptor and signal at 520 - 620 nm is emitted. […] Table 4: Synthesized and tested compounds", "note": "pIC50: −log10 of the molar value. Counter-ions that a name gives are not always drawn."}
{"smiles": "CCOC(=O)c1ccc(Nc2ccnc(-c3cccnc3)n2)cc1", "note": "[AMR-722, ethyl4-((2-(pyridin-3-yl)pyrimidin-4-yl)amino)benzoate hydrochloride]", "values": [{"measurement": "pIC50", "value": 4.72}]}
{"smiles": "CC(=O)c1ccc(Nc2ccnc(-c3cccnc3)n2)cc1", "note": "[AMR-725, 1.-(4-((2-(pyridin-3-yl)pyrimidin-4-yl)amino)phenyl)ethanone hydrochloride]", "values": [{"measurement": "pIC50", "value": 4.28}]}
{"smiles": "CC(=O)c1cccc(Nc2ccnc(-c3cccnc3)n2)c1", "note": "[AMR-726, 1-(3-((2-(pyridin-3-yi)pyrimidin-4-yl)amino)phenyl)ethanone hydrochloride]", "values": [{"measurement": "pIC50", "value": 4.41}]}
{"smiles": "CCOC(=O)c1ccc(Nc2cc(C(F)(F)F)nc(-c3cccnc3)n2)cc1", "note": "[AMR-742, ethyl 4-((2-(pyridin-3-yl)-6-(trifluoromethyl)pyrimidin-4-yl)amino)benzoate hydrochloride]", "values": [{"measurement": "pIC50", "value": "< 4.00"}]}
{"smiles": "CC(=O)c1ccc(Nc2cc(C(F)(F)F)nc(-c3cccnc3)n2)cc1", "note": "[AMR-743, 1-(4-((2-(pyridin-3-yl)-6-(trifluoromethyl)pyrimidin-4-yl)amino)phenyl)ethanone hydrochloride]", "values": [{"measurement": "pIC50", "value": "< 4.00"}]}
{"smiles": "CCOC(=O)c1ccc(Nc2ccnc(-c3ccncc3)n2)cc1", "note": "[AMR-747, ethyl 4-((2-(pyridin-4-yl)pyrimidin-4-yl)amino)benzoate hydrochloride]", "values": [{"measurement": "pIC50", "value": 4.55}]}
{"smiles": "CC(=O)c1ccc(Nc2ccnc(-c3ccncc3)n2)cc1", "note": "[AMR-748, 1-(4-((2-(pyridin-4-yl)pyrimidin-4-yl)amino)phenyl)ethanone hydrochloride]", "values": [{"measurement": "pIC50", "value": "< 4.00"}]}
{"smiles": "FCCNc1ccnc(-c2ccncc2)n1", "note": "[AMR-758, N-(2-fluoroethyl)-2-(pyridin-4-yl)pyrimidin-4-amine hydrochloride]", "values": [{"measurement": "pIC50", "value": "< 4.00"}]}
{"smiles": "CCOC(=O)c1cccc(Nc2ccnc(-c3ccncc3)n2)c1", "note": "[AMR-759, ethyl 3-((2-(pyridin-4-yl)pyrimidin-4-yl)amino)benzoate hydrochloride]", "values": [{"measurement": "pIC50", "value": "< 4.00"}]}
{"smiles": "O=C(NCCF)c1ccc(Nc2ccnc(-c3ccncc3)n2)cc1", "note": "[AMR-763, N-(2-fluoroethyl)-4-((2-(pyridin-4-yl)pyrimidin-4-yl)amino)benzamide hydrochloride]", "values": [{"measurement": "pIC50", "value": "< 4.00"}]}
{"smiles": "O=C(NCC(F)(F)F)c1ccc(Nc2ccnc(-c3cccnc3)n2)cc1", "note": "[AMR-771, 4-((2-(pyridin-3-yl)pyrimidin-4-yl)amino)-N-(2,2,2-trifluoroethyl)benzamide hydrochloride]", "values": [{"measurement": "pIC50", "value": 4.26}]}
{"smiles": "CCOC(=O)c1ccc(Nc2cc(C)nc(-c3cccnc3)n2)cc1", "note": "[AMR-778, ethyl 4-((6-methyl-2-pyridin-3-yl)pyrimidin-4-yl)amino)benzoate hydrochloride]", "values": [{"measurement": "pIC50", "value": 4.68}]}
{"smiles": "O=C(NCCF)c1ccc(Nc2ccnc(-c3cccnc3)n2)cc1", "note": "[AMR-792, N-(2-fluoroethyl)-4-((2-(pyridin-3-yl)pyrimidin-4-yl)amino)benzamide hydrochloride]", "values": [{"measurement": "pIC50", "value": 4.47}]}
{"smiles": "CC(=O)c1ccc(Nc2cc(C)nc(-c3cccnc3)n2)cc1", "note": "[AMR-794, 1-(4-((6-methyl-2-(pyridin-3-yl)pyrimidin-4-yl)amino)phenyl)ethanone hydrochloride]", "values": [{"measurement": "pIC50", "value": 4.92}]}
{"smiles": "Cc1cc(Nc2ccc(C(=O)NCCF)cc2)nc(-c2cccnc2)n1", "note": "[AMR-795, N-(2-fluoroethyl)-4-((6-methyl-2-(pyridin-3-yl)pyrimidin-4-yl)amino)benzamide hydrochloride]", "values": [{"measurement": "pIC50", "value": 5.10}]}
{"smiles": "O=C(O)c1ccc(Nc2ccnc(-c3cccnc3)n2)cc1Cl", "note": "[AMR-802, 2-chloro-4-((2-(pyridin-3-yl)pyrimidin-4-yl)amino)benzoic acid hydrochloride]", "values": [{"measurement": "pIC50", "value": 4.60}]}
{"smiles": "O=C(NCCF)c1cc(Nc2ccnc(-c3cccnc3)n2)ccc1F", "note": "[AMR-816, 2-fluoro-N-(2-fluoroethyl)-5-((2-(pyridin-3-yl)pyrimidin-4-yl)amino)benzamide dihydrochloride]", "values": [{"measurement": "pIC50", "value": 4.17}]}
{"smiles": "CCN(CC)CCNC(=O)c1ccc(Nc2ccnc(-c3cccnc3)n2)cc1", "note": "[AMR-822, N-(2-(diethylamino)ethyl)-4-((2-(pyridin-3-yl)pyrimidin-4-yl)amino)benzamide dihydrochloride]", "values": [{"measurement": "pIC50", "value": "< 4.00"}]}
{"smiles": "CCOC(=O)c1ccc(Nc2ccnc(-c3cccnc3)n2)c(F)c1", "note": "[AMR-823, ethyl 3-fluoro-4-((2-(pyridin-3-yl)pyrimidin-4-yl)amino)benzoate hydrochloride]", "values": [{"measurement": "pIC50", "value": 4.52}]}
{"smiles": "O=C(NCCF)c1ccc(Nc2ccnc(-c3cccnc3)n2)c(F)c1", "note": "[AMR-825, 3-fluoro-N-(2-fluoroethyl)-4-((2-(pyridin-3-yl)pyrimidin-4-yl)amino)benzamide hydrochloride]", "values": [{"measurement": "pIC50", "value": 4.14}]}
{"smiles": "CCN(CC)CCOC(=O)c1ccc(Nc2ccnc(-c3cccnc3)n2)cc1F", "note": "[AMR-827, 2-(diethylamino)ethyl 2-fluoro-4-{(2-(pyridin-3-yl)pyrimidin-4-yl)amino)benzoate hydrochloride]", "values": [{"measurement": "pIC50", "value": "< 4.00"}]}
{"smiles": "Cc1cc(Nc2ccc(C(=O)NCCF)c(F)c2)nc(-c2cccnc2)n1", "note": "[AMR-828, 2-fluoro-N-(2-fluoroethyl)-4-((6-methyl-2-(pyridin-3-yl)pyrimidin-4-yl)amino)benzamide hydrochloride]", "values": [{"measurement": "pIC50", "value": 5.52}]}
{"smiles": "Cc1cc(Nc2ccc(C(=O)NCCF)cc2F)nc(-c2cccnc2)n1", "note": "[AMR-829, 3-fluoro-N-(2-fluoroethyl)-4-((6-methyl-2-(pyridin-3-yl)pyrimidin-4-yl)amino)benzamide hydrochloride]", "values": [{"measurement": "pIC50", "value": 4.82}]}
{"smiles": "CC(=O)c1cccc(Nc2cc(C)nc(-c3cccnc3)n2)c1", "note": "[AMR-830, 1-(3-((6-methyl-2-(pyridin-3-yl)pyrimidin-4-yl)amino)phenyl)ethanone hydrochloride]", "values": [{"measurement": "pIC50", "value": 5.00}]}
{"smiles": "O=C(NCCF)c1ccc(Nc2ccnc(-c3cccnc3)n2)cc1F", "note": "[AMR-831, 2-fluoro-N-(2-fluoroethyl)-4-((2-(pyridin-3-yl)pyrimidin-4-yl)amino)benzamide hydrochloride]", "values": [{"measurement": "pIC50", "value": 4.37}]}
{"smiles": "Cc1cc(Nc2cc(C(=O)NCCF)ccc2F)nc(-c2cccnc2)n1", "note": "[AMR-832, 4-fluoro-N-(2-fluoroethyl)-3-((6-methyl-2-(pyrldin-3-yl)pyrimidin-4-yl)amino)benzamide hydrochloride]", "values": [{"measurement": "pIC50", "value": 4.28}]}
{"smiles": "CC(=O)c1ccc(F)c(Nc2cc(C)nc(-c3cccnc3)n2)c1", "note": "[AMR-838, 1-(4-fluoro-3-((6-methyl-2-(pyridin-3-yl)pyrimidin-4-yl)amino)phenyl)ethanone hydrochloride]", "values": [{"measurement": "pIC50", "value": "< 4.00"}]}
{"smiles": "CC(=O)c1cc(Nc2cc(C)nc(-c3cccnc3)n2)ccc1F", "note": "[AMR-839, 1-(2-fluoro-5-((6-methyl-2-(pyridin-3-yl)pyrimidin-4-yl)amino)phenyl)ethanone hydrochloride]", "values": [{"measurement": "pIC50", "value": 5.05}]}
{"smiles": "Fc1ccc(Nc2ccnc(-c3cccnc3)n2)cc1F", "note": "[KP-343, N-(3,4-difluorophenyl)-2-(pyridin-3-yl)pyrimidin-4-amine dihydrochloride]", "values": [{"measurement": "pIC50", "value": 4.42}]}
{"smiles": "CCOC(=O)c1ccccc1Nc1ccnc(-c2cccnc2)n1", "note": "[KP-347, Ethyl 2-{[2-(pyridm-3-yl)pyrimidm-4-yl]amino}benzoate hydrochloride]", "values": [{"measurement": "pIC50", "value": "< 4.00"}]}
{"smiles": "Fc1cc(Nc2ccnc(-c3cccnc3)n2)cc(F)c1F", "note": "[KP-351, N-(3,4,5-trifluorophenyl)-2-(pyridin-3-yl)pyrimidin-4-amine dihydrochloride]", "values": [{"measurement": "pIC50", "value": 4.22}]}
{"smiles": "CCOC(=O)c1ccc(Nc2ccnc(-c3cncc(Br)c3)n2)cc1", "note": "[KP-352, Ethyl 4-{[2-(5-bromopyridin-3-yl)pyrinudm-4-yl]amino}benzoate hydrochloride]", "values": [{"measurement": "pIC50", "value": "< 4.00"}]}
{"smiles": "Fc1ccc(Nc2ccnc(-c3cncc(Br)c3)n2)cc1F", "note": "[KP-355, 2-(5-Bromopyridin-3-yl)-N-(3,4-difluorophenyl)pyrimidin-4-amine hydrochloride]", "values": [{"measurement": "pIC50", "value": "< 4.00"}]}
{"smiles": "Fc1cc(Nc2ccnc(-c3cncc(Br)c3)n2)cc(F)c1F", "note": "[KP-359, 2-(5-Bromopyridin-3-yl)-N-(3,4,5-trifluorophenyl)pyrimidin-4-amine hydrochloride]", "values": [{"measurement": "pIC50", "value": "< 4.00"}]}
{"smiles": "Fc1ccc(Nc2ccnc(-c3ccncc3)n2)cc1F", "note": "[KP-360, N-(3,4-difluorophenyl)-2-(pyridin-4-yl)pyrimidin-4-amine dihydrochloride]", "values": [{"measurement": "pIC50", "value": 4.09}]}
{"smiles": "CCOC(=O)c1ccccc1Nc1ccnc(-c2cncc(Br)c2)n1", "note": "[KP-363, Ethyl 2-{[2-(5-bromopyridin-3-yl)pyrimidin-4-yl]amino}benzoate hydrochloride]", "values": [{"measurement": "pIC50", "value": 4.24}]}
{"smiles": "Cn1nnc2cc(Nc3ccnc(-c4cncc(Br)c4)n3)ccc21", "note": "[KP-364, N-[2-(5-bromopyridin-3-yl)pyrimidin-4-yl]-1-methyl-1H-benzotriazol-5-amine dihydrochloride]", "values": [{"measurement": "pIC50", "value": 4.85}]}
{"smiles": "CCOC(=O)c1ccc(Nc2cc(-c3cccnc3Cl)ncn2)cc1", "note": "[KP-369, Ethyl 4-{[6-(2-chloropyridin-3-yl)pyrimidin-4-yl]amino}benzoate hydrochloride]", "values": [{"measurement": "pIC50", "value": "< 4.00"}]}
{"smiles": "Fc1cc(Nc2cc(-c3cccnc3Cl)ncn2)cc(F)c1F", "note": "[KP-373, 6-(2-Chloropyridin-3-yl)-N-(3,4,5-trifluorophenyl)pyrimidin-4-amine hydrochloride]", "values": [{"measurement": "pIC50", "value": "< 4.00"}]}
{"smiles": "Fc1ccc(Nc2cc(-c3cccnc3Cl)ncn2)cc1F", "note": "[KP-374, 6-(2-Chloropyridin-3-yl)-N-(3,4-difluorophenyl)pyrimidin-4-amine hydrochloride]", "values": [{"measurement": "pIC50", "value": "< 4.00"}]}
{"smiles": "Cn1nnc2cc(Nc3cc(-c4cccnc4Cl)ncn3)ccc21", "note": "[KP-375, N-[6-(2-Chloropyridin-3-yl)pyrimidin-4-yl]-1-methyl-1H-benzotriazol-5-amine hemihydrochloride]", "values": [{"measurement": "pIC50", "value": "< 4.00"}]}
{"smiles": "COc1cc(Nc2cc(-c3cccnc3Cl)ncn2)cc(OC)c1OC", "note": "[KP-377, 6-(2-Chloropyridin-3-yl)-N-(3,4,5-trimethoxyphenyl)pyrimidin-4-amine hydrochloride]", "values": [{"measurement": "pIC50", "value": "< 4.00"}]}
